According to BindingDB's records for doi:10.1038/nchembio.2134 (University of Pennsylvania, 2016):

Tests used:
Experiment in all cases: HDAC6 fluorescence anisotropy assay
Conditions in all cases: 25 °C
[1] = biological target: T1, Histone deacetylase 6 [440-798] (Danio rerio, UniProt F8W4B7)
T1 construct: 440-798
T1 sequence (F8W4B7 whole entry): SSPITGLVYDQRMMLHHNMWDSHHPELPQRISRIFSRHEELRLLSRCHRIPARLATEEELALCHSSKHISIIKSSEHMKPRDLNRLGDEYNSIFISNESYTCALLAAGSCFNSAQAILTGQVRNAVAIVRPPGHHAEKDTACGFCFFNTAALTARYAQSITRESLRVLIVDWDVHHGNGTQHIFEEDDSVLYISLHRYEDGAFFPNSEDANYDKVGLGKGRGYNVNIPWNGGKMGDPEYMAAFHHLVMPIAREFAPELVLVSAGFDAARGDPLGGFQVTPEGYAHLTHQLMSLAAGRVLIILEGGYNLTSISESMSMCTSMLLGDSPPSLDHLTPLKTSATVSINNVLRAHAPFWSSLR

[2] = biological target: T2, Histone deacetylase 6 [60-420] (Danio rerio, UniProt F8W4B7)
T2 construct: 60-420
T2 sequence (F8W4B7 whole entry): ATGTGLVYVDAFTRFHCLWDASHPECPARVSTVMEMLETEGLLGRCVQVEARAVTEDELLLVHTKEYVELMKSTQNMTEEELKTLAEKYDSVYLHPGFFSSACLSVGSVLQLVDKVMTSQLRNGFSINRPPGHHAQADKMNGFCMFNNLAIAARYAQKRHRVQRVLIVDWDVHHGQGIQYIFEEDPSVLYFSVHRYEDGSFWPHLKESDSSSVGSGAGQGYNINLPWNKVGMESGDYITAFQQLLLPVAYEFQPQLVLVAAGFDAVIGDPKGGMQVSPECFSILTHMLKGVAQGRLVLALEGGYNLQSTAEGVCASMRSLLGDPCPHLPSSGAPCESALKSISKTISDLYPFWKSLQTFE

[3] = biological target: T3, Histone deacetylase 6 [84-835,H651V] (Homo sapiens, UniProt Q9UBN7, H651V)
T3 construct: 84-835
T3 sequence (Q9UBN7 84-835 H651V): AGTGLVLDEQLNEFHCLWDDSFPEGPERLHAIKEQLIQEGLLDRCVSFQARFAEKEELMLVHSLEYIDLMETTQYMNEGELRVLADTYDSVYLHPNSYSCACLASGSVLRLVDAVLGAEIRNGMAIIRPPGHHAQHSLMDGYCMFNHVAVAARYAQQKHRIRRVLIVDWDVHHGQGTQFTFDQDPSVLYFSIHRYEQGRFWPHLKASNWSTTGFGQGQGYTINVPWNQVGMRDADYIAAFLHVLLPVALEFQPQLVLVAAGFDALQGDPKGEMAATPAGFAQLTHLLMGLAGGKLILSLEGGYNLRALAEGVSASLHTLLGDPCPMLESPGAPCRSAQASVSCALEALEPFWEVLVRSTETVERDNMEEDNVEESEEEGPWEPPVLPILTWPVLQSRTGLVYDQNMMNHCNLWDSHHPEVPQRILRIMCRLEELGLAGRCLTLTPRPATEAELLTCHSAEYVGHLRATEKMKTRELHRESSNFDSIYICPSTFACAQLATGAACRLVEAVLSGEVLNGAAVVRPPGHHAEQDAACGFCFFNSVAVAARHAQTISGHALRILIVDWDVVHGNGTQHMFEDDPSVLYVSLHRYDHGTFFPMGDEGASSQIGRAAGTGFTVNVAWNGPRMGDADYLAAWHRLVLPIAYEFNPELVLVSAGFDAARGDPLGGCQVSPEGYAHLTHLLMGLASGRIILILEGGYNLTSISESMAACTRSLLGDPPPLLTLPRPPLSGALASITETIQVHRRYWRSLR

[4] = biological target: T4, Histone deacetylase 6 [84-835,H255V] (Homo sapiens, UniProt Q9UBN7, H255V)
T4 construct: 84-835
T4 sequence (Q9UBN7 84-835 H255V): as the sequence (Q9UBN7 84-835 H651V) above, with H172V, V568H counted along it

[5] = biological target: T5, Histone deacetylase 6 [60-420,H82F,F202Y] (Danio rerio, UniProt F8W4B7, F202Y/H82F)
T5 construct: 60-420
T5 sequence (F8W4B7 as listed by the source H82F/F202Y): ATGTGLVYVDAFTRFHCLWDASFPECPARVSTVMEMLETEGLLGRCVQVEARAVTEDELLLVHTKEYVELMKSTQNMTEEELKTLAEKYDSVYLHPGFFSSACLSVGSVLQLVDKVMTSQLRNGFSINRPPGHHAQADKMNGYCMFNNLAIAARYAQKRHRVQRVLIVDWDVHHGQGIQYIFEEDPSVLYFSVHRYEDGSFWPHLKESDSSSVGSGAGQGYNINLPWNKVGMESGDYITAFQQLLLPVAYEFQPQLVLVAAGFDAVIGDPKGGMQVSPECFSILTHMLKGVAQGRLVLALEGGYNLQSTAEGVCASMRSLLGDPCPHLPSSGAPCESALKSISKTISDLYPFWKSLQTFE

[6] = biological target: T6, Histone deacetylase 6 [440-798,S531A] (Danio rerio, UniProt F8W4B7, S531A)
T6 construct: 440-798
T6 sequence (F8W4B7 as listed by the source S531A): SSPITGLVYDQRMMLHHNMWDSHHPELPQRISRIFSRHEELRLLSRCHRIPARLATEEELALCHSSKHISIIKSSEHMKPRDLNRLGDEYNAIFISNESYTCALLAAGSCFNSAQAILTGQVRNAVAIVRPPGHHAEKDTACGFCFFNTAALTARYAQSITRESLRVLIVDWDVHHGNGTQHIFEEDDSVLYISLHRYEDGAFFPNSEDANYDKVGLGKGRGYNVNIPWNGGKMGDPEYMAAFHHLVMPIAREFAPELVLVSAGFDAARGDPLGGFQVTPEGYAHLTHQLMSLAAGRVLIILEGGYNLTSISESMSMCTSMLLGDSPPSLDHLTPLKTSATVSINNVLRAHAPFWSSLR

[7] = biological target: T7, Histone deacetylase 6 [84-835] (Homo sapiens, UniProt Q9UBN7)
T7 construct: 84-835
T7 sequence (Q9UBN7 whole entry): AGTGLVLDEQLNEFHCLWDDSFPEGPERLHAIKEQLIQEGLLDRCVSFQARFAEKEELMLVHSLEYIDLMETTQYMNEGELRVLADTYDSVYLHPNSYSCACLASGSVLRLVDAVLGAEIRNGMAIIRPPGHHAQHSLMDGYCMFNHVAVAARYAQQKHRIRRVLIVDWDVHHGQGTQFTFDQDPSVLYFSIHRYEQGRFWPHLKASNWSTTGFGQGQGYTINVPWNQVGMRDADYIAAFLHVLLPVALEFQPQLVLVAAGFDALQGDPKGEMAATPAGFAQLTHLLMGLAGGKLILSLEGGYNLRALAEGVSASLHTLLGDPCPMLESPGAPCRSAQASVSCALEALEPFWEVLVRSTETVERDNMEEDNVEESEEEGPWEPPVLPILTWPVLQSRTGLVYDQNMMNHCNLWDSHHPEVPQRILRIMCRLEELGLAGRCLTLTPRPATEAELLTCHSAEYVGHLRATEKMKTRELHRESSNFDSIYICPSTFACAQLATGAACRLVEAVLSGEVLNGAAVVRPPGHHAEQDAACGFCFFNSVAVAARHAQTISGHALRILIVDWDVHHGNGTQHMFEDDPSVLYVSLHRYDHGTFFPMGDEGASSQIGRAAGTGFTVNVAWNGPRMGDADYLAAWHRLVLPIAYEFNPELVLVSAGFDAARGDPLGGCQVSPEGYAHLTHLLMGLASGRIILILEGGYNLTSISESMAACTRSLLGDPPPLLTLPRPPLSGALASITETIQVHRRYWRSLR

Row | IC50 [1] [nM] | Ki [1] [nM] | SMILES | also measured
1 | 2.5 | 1.4 | Cc1[nH]c2ccccc2c1CCNCc1ccc(C=CC(=O)NO)cc1 [Panobinostat] | –
2 | 1.9 | 1.1 | O=C(/C=C/c1cccc(S(=O)(=O)Nc2ccccc2)c1)NO [Belinostat] | –

Further lines, the compound ahead of its results:

Row | SMILES | IC50 [1] [nM] | Ki [1] [nM] | also measured
3 | CC(=O)C(F)(F)F [Trifluoroketone] | 1400 | 800 | –
4 | O=C(CCCCCCC(=O)Nc1ccc(-c2c3ccc(=O)cc-3oc3cc(O)ccc23)c(C(=O)O)c1)NO [fl-SAHA] | – | – | Kd [2]: 1600 nM; Kd [3]: 30000 nM; Kd [1]: 50 nM; Kd [4]: 240 nM; Kd [5]: 2900 nM; Kd [6]: 170 nM; Kd [7]: 300 nM
5 | O=C(NO)c1ccc(CC(=O)N(CCO)c2ccccc2)cc1 [HPOB] | 1.8 | 1 | –
6 | O=C(CCCCCCC(=O)Nc1ccccc1)NO [Zolinza] | ≤ 1.1 | 0.6 | –
